Test results reported in patent US8426673B2, “Pathological animal model for pelvic pain syndrome” (Astellas Pharma, Inc., priority 2008, dated 2013).
Read-outs that look alike come from different tables or passages of the source.

Columns and labels:
Male Wistar rats [1] = assay: Intra testicular injection of acetic acid-induced characteristic pain or discomfort behavior; format: in vivo, rat
Experimental: (§1) Male Wistar rats aged 5 to 12 weeks (Charles River Japan) were used. Positions of the testes were confirmed by keeping the waist of each rat from the dorsal side, and a stimulative substance at a volume of 1 ml/kg was administered into the right and left testes using a syringe equipped with a 27 G needle.
When the intra-testicular administration is achieved, the testes are swelled and become hard in touch. The individuals whose testes were not swelled after the injection were judged as failure in the injection and excluded from further analysis. In addition, dye mixed stimulative substance was injected into the testes and the distribution of the dye within the testes was checked after completion of the experiments to verify whether a stimulative substance was successfully administered or not.
All data was presented as mean and standard error of the mean. The unpaired parametric t-test was used to compare the two group. The parametric Dunnett's multiple comparison test was performed to compare the three groups or more. P<0.05 was considered statistically significant.
(1) Dose-dependency of acetic acid: A rat was placed individually in a clear, round, plastic container (Natsume, Japan) for observation immediately after the intra testicular injection of 0.3, 1 and 3% acetic acid aqueous solutions or distilled water. […] Among these behaviors, the number of behaviors 1) to 3), frequently observed behavior, was counted from 5 to 20 minutes after the intra testicular injection of acetic acid.
(2) Effects of indomethacin: Indomethacin at 5 mg/3 mL/kg (Sigma-Aldrich Japan, Japan) or 0.1% Na2CO3 aqueous solution (vehicle solution) was orally administered 1 hour before the intra testicular injection of 1% acetic acid. Number of the characteristic pain or discomfort behavior was measured in the same manner as described in the above section.

Male Wistar rats [2] = conditions: 1% acetic acid 1 ml/kg intra testicular; 30 to 60 min after injection; distilled water group 97±8%; p<0.05
Source text: All data was presented as mean and standard error of the mean. The unpaired parametric t-test was used to compare the two group. P<0.05 was considered statistically significant.

Male Wistar rats [3] = assay: Intra testicular injection of NGF-induced pain or discomfort behavior; format: in vivo, rat; conditions: 10 to 30 minutes after injection, p<0.01
Experimental: as §1
When the intra-testicular administration is achieved, the testes are swelled and become hard in touch. The individuals whose testes were not swelled after the injection were judged as failure in the injection and excluded from further analysis. […]
(1) Dose dependency of NGF: Mouse NGF 2.5S (Alomone Labs, Ltd., Israel) at […] or saline (vehicle solution) was administered to both of the testes in rat. […] Thus, the total time the behavior of 1) was measured by a stopwatch from 10 to 30 minutes after the intra testicular injection.
(2) Effects of morphine: Morphine (Takeda Chemical Industry, Ltd., Japan) at 5 mg/kg or saline (vehicle solution) was subcutaneously administered 30 minutes before the intra testicular injection of 100 μg/kg NGF. Total time of the above mentioned characteristic pain or discomfort behavior was measured from 10 to 30 minutes after the intra testicular injection of NGF. […]

Male Wistar rats [4] = assay: Effects of intra testicular injection of NGF on bladder capacity (conscious cystometry); format: in vivo, rat; conditions: 100 μg/kg NGF (1 ml/kg) intra testicular; 30 to 60 min after injection; saline group 104±14%; p<0.01
Experimental: P<0.05 was considered statistically significant.
After that, “pre bladder capacity” was recorded for 1 hr. […] Physiological saline (1 ml/kg) or 100 μg/kg NGF (1 ml/kg) were injected into the testes. […] The bladder capacity in the saline treated group was 104±14%, thus showing no significant change. […] This change was significant in comparison with that of physiological saline treated group (FIG. 6).

Molecule: COc1ccc2c(c1)c(CC(=O)O)c(C)n2C(=O)c1ccc(Cl)cc1 [indomethacin, Indomethacin]
- number of the characteristic pain or discomfort behaviors (Male Wistar rats [1]; 5 mg/3 mL/kg orally 1 hour before intra testicular 1% acetic acid, counted 5 to 20 minutes, vehicle group 19±6 times, p<0.01): 3±2 times

Molecule: CC(=O)O [acetic acid]
- bladder capacity, percent of the pre bladder capacity (Male Wistar rats [2]): 53±12%
- characteristic pain or discomfort behaviors (Male Wistar rats [1]; 0.3% acetic acid aqueous solution, 1 ml/kg intra testicular, 5 to 20 minutes after injection, rat): No characteristic pain or discomfort behaviors was observed
- number of pain or discomfort behaviors (Male Wistar rats [1]; 1% acetic acid aqueous solution, 1 ml/kg intra testicular; behaviors 1) to 3) counted 5 to 20 minutes after injection, rat): 16±2 times
- number of pain or discomfort behaviors (Male Wistar rats [1]; 3% acetic acid aqueous solution, 1 ml/kg intra testicular; behaviors 1) to 3) counted 5 to 20 minutes after injection, rat): 19±6 times

Molecule: CN1CC[C@]23c4c5ccc(O)c4O[C@H]2[C@@H](O)C=C[C@H]3[C@H]1C5 [morphine, Morphine]
- total time of the characteristic pain or discomfort behavior (Male Wistar rats [3]; 5 mg/kg subcutaneously 30 minutes before intra testicular 100 μg/kg NGF, vehicle group 167±31 seconds): 9 ± 4 s

B1: NGF: Mouse NGF 2.5S (Alomone Labs), nerve growth factor used as stimulative substance injected into the testes (protein, UniProt P01139 122-241, looked up)
Beta-nerve growth factor: SSTHPVFHMGEFSVCDSVSVWVGDKTTATDIKGKEVTVLAEVNINNSVFRQYFFETKCRASNPVESGCRGIDSKHWNSYCTTTHTFVKALTTDEKQAAWRFIRIDTACVCVLSRKATRRG
- total time of the characteristic pain or discomfort behavior (scratching the body vigorously with hindlimbs) (Male Wistar rats [3]; 100 μg/ml/kg NGF intra testicular, vehicle group 1.0±0.4 second): 155 ± 29 s
- bladder capacity, percent of the pre bladder capacity (Male Wistar rats [4]): 29±9%
